Assay results: patent publication US4220577A, “Iodopropargyl pyridyl and picolinyl ethers and thioethers as paint fungicides” (Givaudan Corporation, priority 1979, dated 1980)
Converted amounts (≈) assume the structure as drawn.

tested on: Staphylococcus aureus; assay: 5-fold serial dilution test in agar, MIC, B1; type: cell-based; details: 37° C., 48 hours, read-out: Minimum Inhibitory Concentration Range
Procedure: (§1) Antibacterial and antifungal activity were evaluated by a 5-fold serial dilution test in agar. In this test, compounds were prepared as 6% solutions in dimethylformamide or ethanol. The 6% solution was then 5-fold serially diluted in test tubes to give the desired concentrations when mixed with agar and poured into sterile Petri dishes. Trypticase glucose extract agar was used for the bacterial testing; mildew glucose agar for the fungal testing. The bacterial plates were spot inoculated with 24-hour nutrient broth cultures and incubated at 37° C. for 48 hours. The fungal plates were spot inoculated with spore suspensions and incubated at 28° C. for seven days. At the end of the incubation periods, all plates were examined for growth. The minimum inhibitory concentration (MIC) for each organism is expressed in Table I. In the ranges presented, growth is observed only at the lower concentration.
B1 Staphylococcus aureus

| Compound | MIC [µg/mL] |
| --- | --- |
| IC#CCOc1cccnc1 [drawing 2] | 15 to 76 (≈ 57.9 to 293 µM) |
| Cc1ccc(OCC#CI)cn1 [drawing 3] | > 1920 |
| Clc1ncccc1OCC#CI [drawing 4] | 3 to 15 (≈ 10.2 to 51.1 µM) |
| Cc1ccc(OCC#CI)c(Cl)n1 [drawing 5] | 384 to 1920 (≈ 1250 to 6240 µM) |
| Nc1ncccc1OCC#CI [drawing 6] | 15 to 76 (≈ 54.7 to 277 µM) |
| IC#CCSc1cccnc1 [drawing 7] | > 1920 |
| IC#CCOCc1cccnc1 [drawing 8] | 76 to 384 (≈ 278 to 1410 µM) |
| IC#CCOc1ccncc1 [drawing 9] | 384 to 1920 (≈ 1480 to 7410 µM) |

tested on: Escherichia coli; assay: 5-fold serial dilution test in agar, MIC, B2; type: cell-based; details: 37° C., 48 hours, read-out: Minimum Inhibitory Concentration Range
Procedure: as §1

| Compound | MIC [µg/mL] |
| --- | --- |
| IC#CCOc1cccnc1 [drawing 2] | 76 to 384 (≈ 293 to 1480 µM) |
| Cc1ccc(OCC#CI)cn1 [drawing 3] | > 1920 |
| Clc1ncccc1OCC#CI [drawing 4] | 15 to 76 (≈ 51.1 to 259 µM) |
| Cc1ccc(OCC#CI)c(Cl)n1 [drawing 5] | > 1920 |
| Nc1ncccc1OCC#CI [drawing 6] | 15 to 76 (≈ 54.7 to 277 µM) |
| IC#CCSc1cccnc1 [drawing 7] | > 1920 |
| IC#CCOCc1cccnc1 [drawing 8] | 76 to 384 (≈ 278 to 1410 µM) |
| IC#CCOc1ccncc1 [drawing 9] | 384 to 1920 (≈ 1480 to 7410 µM) |

tested on: Pseudomonas aeruginosa; assay: 5-fold serial dilution test in agar, MIC, B3; type: cell-based; details: 37° C., 48 hours, read-out: Minimum Inhibitory Concentration Range
Procedure: as §1
B3 Pseudomonas aeruginosa

| Compound | MIC [µg/mL] |
| --- | --- |
| IC#CCOc1cccnc1 [drawing 2] | > 1920 |
| Cc1ccc(OCC#CI)cn1 [drawing 3] | > 1920 |
| Clc1ncccc1OCC#CI [drawing 4] | > 1920 |
| Cc1ccc(OCC#CI)c(Cl)n1 [drawing 5] | > 1920 |
| Nc1ncccc1OCC#CI [drawing 6] | 76 to 384 (≈ 277 to 1400 µM) |
| IC#CCSc1cccnc1 [drawing 7] | > 1920 |
| IC#CCOCc1cccnc1 [drawing 8] | > 1920 |
| IC#CCOc1ccncc1 [drawing 9] | > 1920 |

tested on: Proteus vulgaris; assay: 5-fold serial dilution test in agar, MIC, B4; type: cell-based; details: 37° C., 48 hours, read-out: Minimum Inhibitory Concentration Range
Procedure: as §1

| Compound | MIC [µg/mL] |
| --- | --- |
| IC#CCOc1cccnc1 [drawing 2] | 3 to 15 (≈ 11.6 to 57.9 µM) |
| Cc1ccc(OCC#CI)cn1 [drawing 3] | > 1920 |
| Clc1ncccc1OCC#CI [drawing 4] | 3 to 15 (≈ 10.2 to 51.1 µM) |
| Cc1ccc(OCC#CI)c(Cl)n1 [drawing 5] | > 1920 |
| Nc1ncccc1OCC#CI [drawing 6] | 3 to 15 (≈ 10.9 to 54.7 µM) |
| IC#CCSc1cccnc1 [drawing 7] | > 1920 |
| IC#CCOCc1cccnc1 [drawing 8] | 15 to 76 (≈ 54.9 to 278 µM) |
| IC#CCOc1ccncc1 [drawing 9] | 76 to 384 (≈ 293 to 1480 µM) |

tested on: Bacillus subtilis; assay: 5-fold serial dilution test in agar, MIC, B5; type: cell-based; details: 37° C., 48 hours, read-out: Minimum Inhibitory Concentration Range
Procedure: as §1
B5 Bacillus subtilis 4 3 μg/ml

| Compound | MIC [µg/mL] |
| --- | --- |
| IC#CCOc1cccnc1 [drawing 2] | 3 to 15 (≈ 11.6 to 57.9 µM) |
| Cc1ccc(OCC#CI)cn1 [drawing 3] | > 1920 |
| Clc1ncccc1OCC#CI [drawing 4] | 3 to 15 (≈ 10.2 to 51.1 µM) |
| Cc1ccc(OCC#CI)c(Cl)n1 [drawing 5] | 15 to 76 (≈ 48.8 to 247 µM) |
| Nc1ncccc1OCC#CI [drawing 6] | 15 to 76 (≈ 54.7 to 277 µM) |
| IC#CCSc1cccnc1 [drawing 7] | > 1920 |
| IC#CCOCc1cccnc1 [drawing 8] | 76 to 384 (≈ 278 to 1410 µM) |
| IC#CCOc1ccncc1 [drawing 9] | 3 to 15 (≈ 11.6 to 57.9 µM) |

tested on: Aspergillus niger; assay: 5-fold serial dilution test in agar, MIC, F1; type: cell-based; details: 168 h, 28° C., seven days, read-out: Minimum Inhibitory Concentration Range
Procedure: as §1

| Compound | MIC [µg/mL] |
| --- | --- |
| IC#CCOc1cccnc1 [drawing 2] | 0.03 to 0.12 (≈ 0.116 to 0.463 µM) |
| Cc1ccc(OCC#CI)cn1 [drawing 3] | < 0.03 |
| Clc1ncccc1OCC#CI [drawing 4] | < 0.03 |
| Cc1ccc(OCC#CI)c(Cl)n1 [drawing 5] | < 0.03 |
| Nc1ncccc1OCC#CI [drawing 6] | 0.12 to 0.6 (≈ 0.438 to 2.19 µM) |
| IC#CCSc1cccnc1 [drawing 7] | 15 to 76 (≈ 54.5 to 276 µM) |
| IC#CCOCc1cccnc1 [drawing 8] | 0.03 to 0.12 (≈ 0.11 to 0.439 µM) |
| IC#CCOc1ccncc1 [drawing 9] | < 0.03 |

tested on: Aspergillus oryzae; assay: 5-fold serial dilution test in agar, MIC, F2; type: cell-based; details: 168 h, 28° C., seven days, read-out: Minimum Inhibitory Concentration Range
Procedure: as §1

| Compound | MIC [µg/mL] |
| --- | --- |
| IC#CCOc1cccnc1 [drawing 2] | 0.12 to 0.6 (≈ 0.463 to 2.32 µM) |
| Cc1ccc(OCC#CI)cn1 [drawing 3] | < 0.03 |
| Clc1ncccc1OCC#CI [drawing 4] | 0.03 to 0.12 (≈ 0.102 to 0.409 µM) |
| Cc1ccc(OCC#CI)c(Cl)n1 [drawing 5] | 0.03 to 0.12 (≈ 0.0976 to 0.39 µM) |
| Nc1ncccc1OCC#CI [drawing 6] | 0.12 to 0.6 (≈ 0.438 to 2.19 µM) |
| IC#CCSc1cccnc1 [drawing 7] | < 0.03 |
| IC#CCOCc1cccnc1 [drawing 8] | 0.12 to 0.6 (≈ 0.439 to 2.2 µM) |
| IC#CCOc1ccncc1 [drawing 9] | 0.03 to 0.12 (≈ 0.116 to 0.463 µM) |

tested on: Penicillium piscarium; assay: 5-fold serial dilution test in agar, MIC, F3; type: cell-based; details: 168 h, 28° C., seven days, read-out: Minimum Inhibitory Concentration Range
Procedure: as §1
F3 Penicillium piscarium

| Compound | MIC [µg/mL] |
| --- | --- |
| IC#CCOc1cccnc1 [drawing 2] | 0.12 to 0.6 (≈ 0.463 to 2.32 µM) |
| Cc1ccc(OCC#CI)cn1 [drawing 3] | 0.03 to 0.12 (≈ 0.11 to 0.439 µM) |
| Clc1ncccc1OCC#CI [drawing 4] | 0.12 to 0.6 (≈ 0.409 to 2.04 µM) |
| Cc1ccc(OCC#CI)c(Cl)n1 [drawing 5] | 0.12 to 0.6 (≈ 0.39 to 1.95 µM) |
| Nc1ncccc1OCC#CI [drawing 6] | 0.6 to 3 (≈ 2.19 to 10.9 µM) |
| IC#CCSc1cccnc1 [drawing 7] | 0.12 to 0.6 (≈ 0.436 to 2.18 µM) |
| IC#CCOCc1cccnc1 [drawing 8] | 0.12 to 0.6 (≈ 0.439 to 2.2 µM) |
| IC#CCOc1ccncc1 [drawing 9] | 0.03 to 0.12 (≈ 0.116 to 0.463 µM) |

tested on: Aureobasidium pullulans; assay: 5-fold serial dilution test in agar, MIC, F4; type: cell-based; details: 168 h, 28° C., seven days, read-out: Minimum Inhibitory Concentration Range
Procedure: as §1
F4 Aureobasidium pullulans

| Compound | MIC [µg/mL] |
| --- | --- |
| IC#CCOc1cccnc1 [drawing 2] | 0.12 to 0.6 (≈ 0.463 to 2.32 µM) |
| Cc1ccc(OCC#CI)cn1 [drawing 3] | < 0.03 |
| Clc1ncccc1OCC#CI [drawing 4] | 0.12 to 0.6 (≈ 0.409 to 2.04 µM) |
| Cc1ccc(OCC#CI)c(Cl)n1 [drawing 5] | 0.03 to 0.12 (≈ 0.0976 to 0.39 µM) |
| Nc1ncccc1OCC#CI [drawing 6] | 0.6 to 3 (≈ 2.19 to 10.9 µM) |
| IC#CCSc1cccnc1 [drawing 7] | 0.12 to 0.6 (≈ 0.436 to 2.18 µM) |
| IC#CCOCc1cccnc1 [drawing 8] | 0.6 to 3 (≈ 2.2 to 11 µM) |
| IC#CCOc1ccncc1 [drawing 9] | 0.12 to 0.6 (≈ 0.463 to 2.32 µM) |

tested on: Aureobasidium pullulans (strain 1); assay: Antifungal activity on painted surfaces, strain 1; type: cell-based; set-up: key to Surface Growth: 0: No growth; 1: Slight growth; 2: Moderate growth; 3: Heavy growth; details: 0.25% in vinyl acetate latex paint, Strain 1, three weeks
Procedure: (§2) Any antifungal agent which can be used to prevent mildew on painted surfaces must be effective against Aureobasidium pullulans, the organism which is primarily responsible for mildew on painted surfaces. The effectiveness of the novel compounds was tested by incorporating the compound into an exterior latex paint, applying the paint to a surface, and testing the ability of the painted surface to prevent the growth of Aureobasidium pullulans. The tests were run as described below. The novel compounds were incorporated into an exterior vinyl acetate latex paint by mulling the compound into the paint. The compounds were tested in the paints at levels of 0.25% and 0.5%. One coat of this paint was applied to each side of a piece of Whatman #30 filter paper. Two one-inch squares were cut from the filter paper. Each square was centered on the agar surface of separate Petri dishes containing malt agar. One square was inoculated with a suspension of Aureobasidium pullulans (strain 1) which was an in-house strain used for routine antimicrobial testing. The second square was inoculated with a suspension of Aureobasidium pullulans (strain 2) which was grown from a culture obtained from the surface of a mildew infested panel. Squares painted with the same exterior vinyl acetate latex paint, but without the novel compounds of this invention, were run in parallel. The Petri dishes were then incubated at 27° C. and at greater than 90% humidity for a three week period and observed for zones of inhibition and surface growth.

| Compound | Surface Growth | Zone of Inhibition |
| --- | --- | --- |
| IC#CCOc1cccnc1 [drawing 11] | 0 | 3 (11-15 mm) |
| Cc1ccc(OCC#CI)cn1 [drawing 12] | 0 | 2 (6-10 mm) |
| Clc1ncccc1OCC#CI [drawing 13] | 0 | 2 (6-10 mm) |
| Nc1ncccc1OCC#CI [drawing 14] | 0 |  |

same assay, conditions: 0.5% in vinyl acetate latex paint, Strain 1, three weeks

| Compound | Surface Growth | Zone of Inhibition |
| --- | --- | --- |
| IC#CCOc1cccnc1 [drawing 11] | 0 | 3 (11-15 mm) |
| Cc1ccc(OCC#CI)cn1 [drawing 12] | 0 | 2 (6-10 mm) |
| Clc1ncccc1OCC#CI [drawing 13] | 0 | 3 (11-15 mm) |
| Nc1ncccc1OCC#CI [drawing 14] | 0 | 2 (6-10 mm) |

tested on: Aureobasidium pullulans (strain 2); assay: Antifungal activity on painted surfaces, strain 2; type: cell-based; set-up: key to Surface Growth: 0: No growth; 1: Slight growth; 2: Moderate growth; 3: Heavy growth; key to Zone of Inhibition: 0: no zone; 1-5 mm; 2: 6-10 mm; 3: 11-15 mm; 4: 16-20 mm; 5: >20 mm; details: 0.25% in vinyl acetate latex paint, Strain 2, three weeks
Procedure: as §2

| Compound | Surface Growth | Zone of Inhibition |
| --- | --- | --- |
| Cc1ccc(OCC#CI)cn1 [drawing 12] | 0 | 1 (1-5 mm) |
| Clc1ncccc1OCC#CI [drawing 13] | 0 | 1 (1-5 mm) |
| Nc1ncccc1OCC#CI [drawing 14] | 0 | 0 |

same assay, conditions: 0.5% in vinyl acetate latex paint, Strain 2, three weeks

| Compound | Surface Growth | Zone of Inhibition |
| --- | --- | --- |
| Cc1ccc(OCC#CI)cn1 [drawing 12] | 0 | 2 (6-10 mm) |
| Clc1ncccc1OCC#CI [drawing 13] | 0 | 2 (6-10 mm) |
| Nc1ncccc1OCC#CI [drawing 14] | 0 | 0 |
